Values of other authors in US9186343B2, “Nanoveso™: treatment, biomarkers and diagnostic tests for liver diseases and comorbid diseases” (Nanoveson, LLC, priority 2007, dated 2015).
Where “and” joins values, the source holds several entries; their conditions need not be identical. Identical values can stand only once.

What was measured:
[1] = system: human prostate cancer cells; details: in vitro at micromolar concentrations
chromaffin granules = details: most effective fusogen of 23 compounds
[2] = presence of annexin

Molecule | human prostate cancer cell growth [1] | minimum concentration as fusogen (chromaffin granules) | increase of the aggregation rate [2]
CCCCC/C=C\C/C=C\C/C=C\C/C=C\CCCC(=O)O [AA, Arachidonic Acid (n-6 20:4)] | effective stimulator | 2 ug/ml and 6.6 uM | –
annexin: synexin (a.k.a. annexin VII), a Ca2+ binding protein (protein, UniProt P20073 1-488, looked up) Annexin A7: MSYPGYPPTGYPPFPGYPPAGQESSFPPSGQYPYPSGFPPMGGGAYPQVPSSGYPGAGGYPAPGGYPAPGGYPGAPQPGGAPSYPGVPPGQGFGVPPGGAGFSGYPQPPSQSYGGGPAQVPLPGGFPGGQMPSQYPGGQPTYPSQINTDSFSSYPVFSPVSLDYSSEPATVTQVTQGTIRPAANFDAIRDAEILRKAMKGFGTDEQAIVDVVANRSNDQRQKIKAAFKTSYGKDLIKDLKSELSGNMEELILALFMPPTYYDAWSLRKAMQGAGTQERVLIEILCTRTNQEIREIVRCYQSEFGRDLEKDIRSDTSGHFERLLVSMCQGNRDENQSINHQMAQEDAQRLYQAGEGRLGTDESCFNMILATRSFPQLRATMEAYSRMANRDLLSSVSREFSGYVESGLKTILQCALNRPAFFAERLYYAMKGAGTDDSTLVRIVVTRSEIDLVQIKQMFAQMYQKTLGTMIAGDTSGDYRRLLLAIVGQ | – | – | up to 100 fold
